# According to US20190365745A1, “USE OF CHRONIC TREATMENT WITH ATR INHIBITORS TO SENSITIZE CANCER CELLS TO PARP INHIBITORS” (Cornell University, priority 2018, published 2019):
# Legend:
# [1] = target: T1, ATR (Homo sapiens, UniProt Q13535); test: Western blot of phospho-CHK1(S345) in HU-treated cells; assay type: cell-based; details: 5 μM ATRi; HU-treated U2OS cells
# T1 construct: endogenous in cells; host or cells: U2OS (human osteosarcoma)
# Description: FIG. 3 is a Western Blot (“WB”) of U2OS cells treated with ATRi for 30 minutes prior to a 3-hour HU treatment. WB analysis was performed against phospho-CHK1(S345), CHK1 and Actin.
# Cells were harvested and lysed in modified radioimmunoprecipitation assay (RIPA) buffer (50 mM Tris-HCl pH 7.5, 150 mM NaCl, 1% tergitol, 0.25% sodium deoxycholate, 5 mM EDTA) supplemented with Complete EDTA-free protease inhibitor cocktail (Roche), 1 mM PMSF, 5 mM sodium fluoride, 10 mM β-glycerol-phosphate and 0.4 mM sodium orthovanadate. Whole cell lysates were cleared with 5 minute centrifugation at 13,000 rpm at 4° C. and mixed with 3×SDS sample buffer (bromophenol blue, stacking gel buffer, 50% glycerol, 3% SDS and 60 mM DTT). After being resolved on SDS-PAGE gels, proteins were then transferred onto polyvinylidene difluoride (PVDF) membranes and detected with designated antibodies.
# [2] = system: U2OS cells; test: SILAC/MS proteomic analysis of nuclear proteins (protein abundance); assay type: cell-based, Human; details: U2OS nuclear proteome; 5 μM ATRi, 8 days vs untreated
# Description: FIG. 5A is a schematic diagram of the SILAC/MS experiment. FIG. 5B is a quadrant diagram of the SILAC/MS experiment. Each dot represents a different identified protein. Proteins with abundance reduced two-fold or more after ATRi treatment are shown in the upper-left corner (white quadrant). FIG. 5C is a WB analysis of U2OS cells after 8 days of chronic treatment with 5 μM of ATRi or ATMi. FIG. 5D is a time course WB analysis of U2OS cells during chronic treatment with 5 μM ATRi. FIG. 5E is a WB analysis of U2OS cells at distinct cell cycle stages. Cells were treated with 1 mM hydroxyurea (HU) or 50 ng/ml nocodazole (Noc) for 24 hours. HU treated cells were released for 2.5 hours in HU-free media. FIG. 5F is a WB analysis of U2OS cells untreated or treated for 8 days with 5 μM ATRi.
# For quantitative proteomic analysis, U2OS cells chronically treated with DMSO or ATR inhibitor were cultured, respectively, in “light” or “heavy” SILAC DMEM media (ThermoFisher Scientific 88425) supplemented with 10% dialyzed FBS and penicillin/streptomycin. “Light” SILAC media was supplemented with “light” (normal) arginine ^12C6, […], while “heavy” SILAC media contained “heavy” lysine ^13C6, ^15N2 and “heavy” arginine ^13C6, ^15N4. […] HILIC fractions were dried and reconstituted in 0.1% trifluoroacetic acid and analyzed using a Q-Exactive Orbitrap and Lumos mass spectrometer. […]
# [3] = system: U2OS cells; test: EJ5-GFP (NHEJ) assay; assay type: cell-based, Human; details: 5 μM ATRi, 8 days
# Description: Human U2OS, HCT116, hTERT RPE-1, HEK293T, HeLa, U87, T98G, A2780, and human skin fibroblast cells (GM08398 and GM18366) were grown in DMEM media supplemented with 10% bovine calf serum, penicillin/streptomycin and non-essential amino acids. SV40 large T antigen transformed hTERT RPE-1 cells were generated by infecting hTERT RPE-1 cells with a SV40 large T antigen (SV40 LT)-expressing retrovirus and were selected using 500 μg/ml G418. The stable SV40 large T antigen transformed hTERT RPE-1 cell line was then maintained in culture media supplemented 500 μg/ml G418. […]
# For the DR-GFP assay, cells (U2OS, HCT116, hTERT RPE-1, HEK293T, HeLa, U87, T98G, A2780, 293-T-REX-E2F6 cells and SV40 large T antigen transformed hTERT RPE-1) were transfected with the mCherry plasmid or DR-GFP reporter plasmid (pDR-GFP; addgene plasmid 26475) together with a plasmid coding for I-SceI (pCBASceI; addgene plasmid 26477) or DR-GFP reporter plasmid together with an empty plasmid pCAGGS. Two days after transfection, cells were trypsinized, resuspended in PBS and then analyzed by flow cytometry using FACSAria Fusion or Accuri C6 cytometer (BD). […]
# T1 sequence (Q13535 whole entry): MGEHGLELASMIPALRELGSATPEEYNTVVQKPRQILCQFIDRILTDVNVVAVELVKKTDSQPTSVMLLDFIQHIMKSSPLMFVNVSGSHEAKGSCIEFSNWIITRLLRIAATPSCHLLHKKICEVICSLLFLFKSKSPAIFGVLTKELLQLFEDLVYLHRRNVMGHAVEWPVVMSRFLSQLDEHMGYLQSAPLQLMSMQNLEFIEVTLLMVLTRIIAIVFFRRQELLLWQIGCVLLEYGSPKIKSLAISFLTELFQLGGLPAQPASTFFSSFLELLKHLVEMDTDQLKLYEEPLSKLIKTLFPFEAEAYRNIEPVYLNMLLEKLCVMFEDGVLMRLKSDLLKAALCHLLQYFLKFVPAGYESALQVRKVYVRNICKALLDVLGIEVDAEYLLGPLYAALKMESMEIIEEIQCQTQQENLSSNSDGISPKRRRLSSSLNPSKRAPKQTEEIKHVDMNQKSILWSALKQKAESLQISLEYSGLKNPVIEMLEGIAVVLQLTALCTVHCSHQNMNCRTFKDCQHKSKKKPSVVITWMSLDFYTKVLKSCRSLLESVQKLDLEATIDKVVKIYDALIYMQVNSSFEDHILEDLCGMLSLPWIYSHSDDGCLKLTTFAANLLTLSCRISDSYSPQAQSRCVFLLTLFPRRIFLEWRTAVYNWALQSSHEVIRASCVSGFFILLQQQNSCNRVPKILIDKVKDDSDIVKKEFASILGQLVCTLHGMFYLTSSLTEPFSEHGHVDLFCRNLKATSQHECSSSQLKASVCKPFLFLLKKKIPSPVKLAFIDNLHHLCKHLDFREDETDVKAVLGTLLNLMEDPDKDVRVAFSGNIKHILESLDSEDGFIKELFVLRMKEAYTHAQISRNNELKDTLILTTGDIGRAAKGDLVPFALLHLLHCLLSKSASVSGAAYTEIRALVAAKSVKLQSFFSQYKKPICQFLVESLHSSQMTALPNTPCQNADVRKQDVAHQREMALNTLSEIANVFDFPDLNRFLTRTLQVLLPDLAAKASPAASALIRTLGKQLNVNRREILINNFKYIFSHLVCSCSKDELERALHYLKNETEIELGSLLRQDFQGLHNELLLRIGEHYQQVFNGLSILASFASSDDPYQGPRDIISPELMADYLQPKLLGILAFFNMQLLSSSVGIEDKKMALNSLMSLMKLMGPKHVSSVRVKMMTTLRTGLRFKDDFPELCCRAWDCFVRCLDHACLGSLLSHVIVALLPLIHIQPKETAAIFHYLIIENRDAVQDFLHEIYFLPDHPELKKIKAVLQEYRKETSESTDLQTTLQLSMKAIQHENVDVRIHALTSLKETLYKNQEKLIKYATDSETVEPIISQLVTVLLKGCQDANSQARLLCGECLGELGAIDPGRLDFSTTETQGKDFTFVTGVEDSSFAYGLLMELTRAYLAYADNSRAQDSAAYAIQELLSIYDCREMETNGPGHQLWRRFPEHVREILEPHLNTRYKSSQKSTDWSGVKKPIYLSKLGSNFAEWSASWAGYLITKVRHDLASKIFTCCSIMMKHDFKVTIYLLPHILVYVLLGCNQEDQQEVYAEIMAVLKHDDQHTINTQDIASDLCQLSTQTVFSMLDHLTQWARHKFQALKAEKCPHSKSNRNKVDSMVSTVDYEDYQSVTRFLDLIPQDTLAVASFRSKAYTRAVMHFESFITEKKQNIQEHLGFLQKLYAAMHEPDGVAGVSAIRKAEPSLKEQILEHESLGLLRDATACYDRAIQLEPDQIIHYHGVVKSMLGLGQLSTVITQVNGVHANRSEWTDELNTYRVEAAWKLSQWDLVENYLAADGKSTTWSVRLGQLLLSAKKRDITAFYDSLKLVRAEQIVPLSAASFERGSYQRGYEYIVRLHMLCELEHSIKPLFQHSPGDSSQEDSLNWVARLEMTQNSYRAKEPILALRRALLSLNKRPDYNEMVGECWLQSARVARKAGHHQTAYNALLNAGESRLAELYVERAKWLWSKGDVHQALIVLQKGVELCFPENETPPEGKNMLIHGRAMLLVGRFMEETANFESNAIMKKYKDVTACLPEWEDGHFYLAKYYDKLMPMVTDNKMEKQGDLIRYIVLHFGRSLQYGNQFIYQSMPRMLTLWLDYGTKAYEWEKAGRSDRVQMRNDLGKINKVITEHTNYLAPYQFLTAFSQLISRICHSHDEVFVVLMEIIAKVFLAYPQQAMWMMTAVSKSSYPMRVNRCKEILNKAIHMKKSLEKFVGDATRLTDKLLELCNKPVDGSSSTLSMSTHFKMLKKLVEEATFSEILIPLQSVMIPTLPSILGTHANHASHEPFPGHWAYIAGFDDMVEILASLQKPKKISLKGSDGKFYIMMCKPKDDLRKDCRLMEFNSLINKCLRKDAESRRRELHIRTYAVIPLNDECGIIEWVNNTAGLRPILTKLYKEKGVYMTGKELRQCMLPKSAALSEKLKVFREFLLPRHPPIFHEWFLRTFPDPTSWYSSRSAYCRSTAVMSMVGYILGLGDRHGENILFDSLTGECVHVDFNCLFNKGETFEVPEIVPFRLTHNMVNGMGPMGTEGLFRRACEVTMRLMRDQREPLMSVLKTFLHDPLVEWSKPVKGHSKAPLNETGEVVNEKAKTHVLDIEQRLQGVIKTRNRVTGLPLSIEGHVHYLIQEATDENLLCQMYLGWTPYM
# T1 sequence (Q8WXE1 whole entry partner): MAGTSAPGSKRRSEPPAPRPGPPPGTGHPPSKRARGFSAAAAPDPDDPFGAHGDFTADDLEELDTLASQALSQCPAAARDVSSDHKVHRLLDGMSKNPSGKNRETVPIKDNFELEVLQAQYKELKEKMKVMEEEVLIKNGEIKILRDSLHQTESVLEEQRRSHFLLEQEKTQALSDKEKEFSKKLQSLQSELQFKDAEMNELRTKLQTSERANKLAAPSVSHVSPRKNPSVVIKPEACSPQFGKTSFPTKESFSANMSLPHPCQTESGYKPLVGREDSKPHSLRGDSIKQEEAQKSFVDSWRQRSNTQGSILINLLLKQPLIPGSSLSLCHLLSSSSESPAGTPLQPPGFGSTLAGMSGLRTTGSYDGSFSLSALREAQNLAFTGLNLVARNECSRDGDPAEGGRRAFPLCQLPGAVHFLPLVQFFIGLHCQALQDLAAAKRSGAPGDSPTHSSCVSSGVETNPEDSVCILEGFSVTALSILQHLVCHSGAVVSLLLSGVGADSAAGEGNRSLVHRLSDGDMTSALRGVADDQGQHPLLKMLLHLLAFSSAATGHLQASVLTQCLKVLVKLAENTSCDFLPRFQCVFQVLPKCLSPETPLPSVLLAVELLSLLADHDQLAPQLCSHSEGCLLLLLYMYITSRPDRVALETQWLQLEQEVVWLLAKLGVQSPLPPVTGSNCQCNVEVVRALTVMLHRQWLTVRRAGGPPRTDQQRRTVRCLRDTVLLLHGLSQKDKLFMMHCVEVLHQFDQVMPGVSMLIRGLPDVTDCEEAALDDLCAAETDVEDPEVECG
smiles,measurement,setting,value
"CS(=O)(=O)c1ccc(-c2cnc(N)c(C(=O)Nc3ccccc3)n2)cc1 [ATRi, VE-821]",ATR inhibition monitored by CHK1 phosphorylation,[1],almost complete ATR inhibition
same,"Abundance of proteins required for HR-mediated repair, including BRCA1 and FANCJ (SILAC/MS)",[2],reduced
same,NHEJ efficiency (EJ5-GFP),[3],does not result in a significant change in NHEJ efficiency
